Experimental data published in paper PMC8160793, “Potent Antimicrobial and Antibiofilm Activities of Feleucin-K3 Analogs Modified by α-(4-Pentenyl)-Ala against Multidrug-Resistant Bacteria” (Biomolecules, 2021).
Values after ≈ are worked out from the molar mass of the structure shown. Square brackets hold non-standard residues; d marks the D form. Peptide text beside a SMILES is read from it. ξ: configuration not given here. ξαMeGly(pent-4-enyl) = C=CCCCC(C)(N)C(=O)O

How the values were obtained:
MRSA 48 = assay type: cell-based, Staphylococcus aureus; conditions: 48, 18 h
Summary of the method: (§1)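 Inoculum 1 × 10^6 CFU/mL (McFarland); peptide 8–128 μg/mL; 37 °C, 18 h; MIC = no visible growth. Salt variant: 450-mM NaCl, same protocol. Replicated until three identical values.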

S. aureus 725 = assay type: cell-based, Staphylococcus aureus; conditions: 725, 18 h
Summary of the method: as §1

S. aureus ATCC 25923 = assay type: cell-based, Staphylococcus aureus; conditions: ATCC 25923, 18 h
Summary of the method: as §1

MRSA 75 = assay type: cell-based, Staphylococcus aureus; conditions: 75, 18 h
Summary of the method: as §1

MRSA 51 = assay type: cell-based, Staphylococcus aureus; conditions: 51, 18 h
Summary of the method: as §1

MRSA 71 = assay type: cell-based, Staphylococcus aureus; conditions: 71, 18 h
Summary of the method: as §1

S. aureus 794 = assay type: cell-based, Staphylococcus aureus; conditions: 794, 18 h
Summary of the method: as §1

MRSA 936 = assay type: cell-based, Staphylococcus aureus; conditions: 936, 18 h
Summary of the method: as §1

MRSA 74 = assay type: cell-based, Staphylococcus aureus; conditions: 74, 18 h
Summary of the method: as §1

MRSA 113 = assay type: cell-based, Staphylococcus aureus; conditions: 113, 18 h
Summary of the method: as §1

MRSA ATCC 33591 = assay type: cell-based, Staphylococcus aureus; conditions: ATCC 33591, 18 h
Summary of the method: as §1

E. coli ATCC 25922 = assay type: cell-based; conditions: ATCC 25922, 18 h
Procedure: The minimum inhibitory concentration (MIC) of the Feleucin-K3 analogs was tested by the broth microdilution method. Sensitive bacteria and drug-resistant bacteria were diluted to 1 × 10^6 CFU/mL, according to the McFarland standards. Bacterial suspension and peptide solutions (8–128 μg/mL) were incubated at 37 °C for 18 h. The minimum concentration without obvious bacterial growth was the MIC of the peptides. The stability of the analogs in a physiological salt environment was also investigated. In brief, salt powder (450-mM NaCl) was dissolved in deionized water, and the following investigational steps were the same as those described before. The above steps were repeated several times, until the same value was obtained three times.

Q: Which “MIC, MRSA 48” value (MRSA 48) does the source give for C=CCCCC(C)(N)C(=O)N[C@@H](CC(C)C)C(=O)N[C@@H](CCCCN)C(=O)N[C@@H](CC(C)C)C(=O)N[C@@H](CC(C)C)C(=O)N[C@@H](CCCCN)C(=O)N[C@@H](CCCCN)C(=O)N[C@@H](CC(C)C)C(=O)N[C@@H](CC(C)C)C(N)=O (stereo partly drawn) [Feleucin-K65] (H-[ξαMeGly(pent-4-enyl)]LKLLKKLL-NH2) here?
A: Its value is 4 mg/L (≈ 3.61 µM).

Q: What about the “MIC, S. aureus 725” value (S. aureus 725) of the same compound?
A: Its value is 4 mg/L (≈ 3.61 µM).

Q: What about the “MIC, S. aureus ATCC 25923” value (S. aureus ATCC 25923) of the same compound?
A: Its value is 8 mg/L (≈ 7.23 µM).

Q: And the “MIC, MRSA 75” value (MRSA 75)?
A: Its value is 4 mg/L (≈ 3.61 µM).

Q: And the “MIC, MRSA 51” value (MRSA 51)?
A: Its value is 8 mg/L (≈ 7.23 µM).

Q: And the “MIC, MRSA 71” value (MRSA 71)?
A: Its value is 4 mg/L (≈ 3.61 µM).

Q: What about the “MIC, S. aureus 794” value (S. aureus 794) of the same compound?
A: The value was 8 mg/L (≈ 7.23 µM).

Q: And the “MIC, MRSA 936” value (MRSA 936)?
A: The value was 4 mg/L (≈ 3.61 µM).

Q: And the “MIC, MRSA 74” value (MRSA 74)?
A: Its value is 4 mg/L (≈ 3.61 µM).

Q: And the “MIC, MRSA 113” value (MRSA 113)?
A: Its value is 8 mg/L (≈ 7.23 µM).

Q: And the “MIC, MRSA ATCC 33591” value (MRSA ATCC 33591)?
A: Its value is 4 mg/L (≈ 3.61 µM).

Q: What about the “MIC, E. coli ATCC 25922” value (E. coli ATCC 25922) of the same compound?
A: Its value is 8 mg/L (≈ 7.23 µM).

Q: What does the source list for C=CCCCC(C)(NC(=O)[C@H](CC(C)C)NC(=O)[C@H](CCCCN)NC(=O)[C@H](CCCCN)NC(=O)[C@H](CC(C)C)NC(=O)[C@H](CC(C)C)NC(=O)[C@H](CCCCN)NC(=O)[C@H](CC(C)C)NC(=O)[C@@H](N)Cc1ccccc1)C(N)=O (stereo partly drawn) [Feleucin-K70] (H-FLKLLKKL[ξαMeGly(pent-4-enyl)]-NH2)?
A: MIC, MRSA 48 (MRSA 48): 8 mg/L (≈ 7.01 µM); MIC, S. aureus 725 (S. aureus 725): 8 mg/L (≈ 7.01 µM); MIC, S. aureus ATCC 25923 (S. aureus ATCC 25923): 8 mg/L (≈ 7.01 µM); MIC, MRSA 75 (MRSA 75): 8 mg/L (≈ 7.01 µM); MIC, MRSA 51 (MRSA 51): 8 mg/L (≈ 7.01 µM); MIC, MRSA 71 (MRSA 71): 8 mg/L (≈ 7.01 µM); MIC, S. aureus 794 (S. aureus 794): 8 mg/L (≈ 7.01 µM); MIC, MRSA 936 (MRSA 936): 8 mg/L (≈ 7.01 µM); MIC, MRSA 74 (MRSA 74): 8 mg/L (≈ 7.01 µM); MIC, MRSA 113 (MRSA 113): 8 mg/L (≈ 7.01 µM); MIC, MRSA ATCC 33591 (MRSA ATCC 33591): 8 mg/L (≈ 7.01 µM); MIC, E. coli ATCC 25922 (E. coli ATCC 25922): 8 mg/L (≈ 7.01 µM)
